Among the data in PubChem BioAssay (NCI) are TGI and GI50 values, retold here.

Structures are written as SMILES. Where “and” joins values, the source holds several entries; their conditions need not be identical. Equal values may be shown once.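 Values below derive from 48-hour exposures of cells grown in 96-well plates, with endpoints linearly interpolated between the two concentrations bracketing the appropriate inhibition level. GI50 is the concentration that inhibits growth by half. At the TGI there is no net growth.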 Bounds are passed on as bounds.

Test systems include 786-0 renal; DU-145 prostate; MDA-N; T-47D breast; DMS 114 small cell lung; DMS 273 small cell lung; HOP-18 NSCLC; P388 leukemia; P388/ADR leukemia; SN12K1 renal; SNB-78 CNS; XF 498 CNS; RXF-631 renal.
Common to all, as to experiment: NCI tumour cell line growth inhibition, 48 h

Consider `COC(=O)CCC(C)C1CCC2C3CCC4CC5CCC4(C)C3(O5)C(Br)C(Br)C12C` (centres undefined), for which the TGI in the experiment with 786-0 renal, in the experiment with DU-145 prostate, with MDA-N and with T-47D breast was greater than 100 µM throughout.
In the case of `O=C1CCc2cc3c(cc21)CC1(Cc2cc4c(cc2C1)CCCC4)C3`, the results for the TGI in the experiment on DU-145 prostate, with MDA-N and in the experiment with T-47D breast were greater than 100 µM, 39.4 µM and greater than 100 µM, respectively.
For the compound `CCOC(=O)/C=C/c1c[nH]c(C(=O)OCC)c1`, the TGI in the experiment on DMS 114 small cell lung, in the experiment on DMS 273 small cell lung, in the experiment with HOP-18 NSCLC, in the experiment on P388 leukemia, in the experiment with P388/ADR leukemia and in the experiment on SN12K1 renal was greater than 100 µM each time. For the same compound, the TGI in the experiment on SNB-78 CNS and with XF 498 CNS was greater than 100 µM in each case.
Turning to `CC(=O)c1cccc(NC(=O)C(=O)C(C(=O)c2ccccc2F)C2OC(=O)c3ccccc32)c1` (centres undefined), the TGI in the experiment with DMS 114 small cell lung is 90 µM; in the experiment with DMS 273 small cell lung, greater than 100 µM; with RXF-631 renal, greater than 100 µM; in the experiment on SNB-78 CNS, greater than 100 µM; in the experiment with XF 498 CNS it was greater than 100 µM.
Consider `CC(C)CCCC(C)[C@H]1CC[C@H]2[C@@H]3CC[C@H]4C[C@@H](CCC=C(c5cc(Cl)c(O)c(C(=O)O)c5)c5cc(Cl)c(O)c(C(=O)O)c5)CC[C@]4(C)[C@H]3CC[C@]12C` (some centres undefined) (tested in a mixture with another compound), for which the TGI with 786-0 renal, in the experiment on DU-145 prostate and with T-47D breast was greater than 50 µM each time.
On to `Nc1nc(Cl)cc(NCCCCCCCCCCCCNc2cc(Cl)nc(N)n2)n1`, for which the figures for the TGI in the experiment on DMS 273 small cell lung, with HOP-18 NSCLC and with XF 498 CNS were 58 µM, greater than 100 µM and 26.4 µM, respectively.
With `CC[C@](C)(O)C(=O)O[C@H]1C(=O)O[C@@H]2C[C@H]3C(C)=C[C@H](O)[C@@H](O)[C@]3(C)[C@H]3[C@@]4(O)OC[C@]32[C@@H]1[C@@H](C)[C@H]4O`, the TGI with DMS 114 small cell lung turned out to be 17.6 µM; in the experiment with DMS 273 small cell lung it was 127 µM; with HOP-18 NSCLC, 298 µM; in the experiment with P388 leukemia, 128 µM; in the experiment on P388/ADR leukemia, 325 µM; in the experiment with SN12K1 renal, 32.1 µM. The results for the TGI in the experiment with SNB-78 CNS and with XF 498 CNS were 138 µM and 66.5 µM, respectively.
On to `CCOC(=O)C1=NN(c2ccccc2)C2=CC(C)=NN(C)C(=S)N21`, for which the TGI in the experiment on DU-145 prostate, in the experiment with MDA-N and in the experiment with T-47D breast was greater than 100 µM each time.
With `ClCc1ccc2ccc3ccc(CCl)nc3c2n1`, the TGI in the experiment on DMS 114 small cell lung was 4.26 µM; in the experiment with HOP-18 NSCLC it was 8.77 µM; with P388 leukemia, 7.32 µM; with P388/ADR leukemia, 5.07 µM; in the experiment with SN12K1 renal, 4.4 µM; in the experiment on SNB-78 CNS it was 10.3 µM. For the same compound, the TGI in the experiment on XF 498 CNS worked out at 4.45 µM.
For `COc1cc(C2c3cc4c(cc3[C@@H](NCCCN(C)C)[C@H]3COC(=O)C23)OCO4)cc(OC)c1O` (some centres undefined), the TGI with DMS 273 small cell lung was 2.06 µM and 2.61 µM; with HOP-18 NSCLC, > 37.5 µM and 16.3 µM; in the experiment on SNB-78 CNS, greater than 37.5 µM. Also, the GI50 in the experiment on HOP-18 NSCLC was 3.78 µM and 1.18 µM; with SNB-78 CNS, 2.6 µM and 11.6 µM.
